# Key:
# HIV-IIIb = experiment: Antiviral assay in MT4 cells; type: cell-based; details: Human immunodeficiency virus 1, 120 h; MT4 cells infected with HIV-IIIb, 5 days incubation, CellTiter-Glo; average over time; read-out: EC50 nM in MT-4
# Protocol: (§1) For the antiviral assay utilizing MT4 cells, 0.4 μL of 189× test concentration of 3-fold serially diluted compound in DMSO was added to 40 μL of cell growth medium (RPMI 1640, 10% FBS, 1% penicillin/streptomycin, 1% L-Glutamine, 1% HEPES) in each well of 384-well assay plates (10 concentrations) in quadruplicate. 1 mL aliquots of 2×10^6 MT4 cells are pre-infected for 1 and 3 hours respectively at 37° C. with 25 μL (MT4) or of either cell growth medium (mock-infected) or a fresh 1:250 dilution of an HIV-IIIb concentrated ABI stock (0.004 m.o.i. for MT4 cells). Infected and uninfected cells are diluted in cell growth medium and 35 μL of 2000 (for MT4) cells is added to each well of the assay plates. Assay plates were then incubated in a 37° C. incubator. After 5 days of incubation, 25 μL of 2× concentrated CellTiter-Glo™ Reagent (catalog # G7573, Promega Biosciences, Inc., Madison, Wis.) was added to each well of the assay plate. Cell lysis was carried out by incubating at room temperature for 2-3 minutes, and then chemiluminescence was read using the Envision reader (PerkinElmer).
# in vitro = type: cell-based; details: human
# Protocol: as §1
Structure (SMILES),EC50 (HIV-IIIb),CC50 at 5 days (in vitro)
"O=C(N[C@@H](c1ccc(F)cc1F)C(F)(F)F)c1cn2c(c(O)c1=O)C(=O)N1[C@@H]3C[C@H](O[C@@H]1C2)[C@H]1C[C@H]13 [Compound 1, (1aS,2S,3aR,12R,12aR)-N-((S)-1-(2,4-difluorophenyl)-2,2,2-trifluoroethyl)-9-hydroxy-8,10-dioxo-1a,2,3a,4,8,10,12,12a-octahydro-1H-2,12-methanocyclopropa[e]pyrido[1′,2′:4,5]pyrazino[2,1-b][1,3]oxazepine-7-carboxamide]",9.6 nM,14.1 µM
"O=C(N[C@@H](c1ccc(F)cc1F)C(F)(F)F)c1cn2c(c(O)c1=O)C(=O)N1[C@H](C2)O[C@@H]2C[C@H]1[C@H]1C[C@H]12 [Compound 2, (1aR,2R,3aS,12S,12aS)-N-((S)-1-(2,4-difluorophenyl)-2,2,2-trifluoroethyl)-9-hydroxy-8,10-dioxo-1a,2,3a,4,8,10,12,12a-octahydro-1H-2,12-methanocyclopropa[e]pyrido[1′,2′:4,5]pyrazino[2,1-b][1,3]oxazepine-7-carboxamide]",10.7 nM,7.8 µM
"C[C@@H](NC(=O)c1cn2c(c(O)c1=O)C(=O)N1[C@@H]3C[C@H](O[C@@H]1C2)[C@H]1C[C@H]13)c1ccc(F)cc1F [Compound 3, (1aS,2S,3aR,12R,12aR)-N-((R)-1-(2,4-difluorophenyl)ethyl)-9-hydroxy-8,10-dioxo-1a,2,3a,4,8,10,12,12a-octahydro-1H-2,12-methanocyclopropa[e]pyrido[1′,2′:4,5]pyrazino[2,1-b][1,3]oxazepine-7-carboxamide]",9.9 nM,4.1 µM
C[C@@H](NC(=O)c1cn2c(c(O)c1=O)C(=O)N1C3CC(O[C@H]1C2)[C@@H]1C[C@H]31)c1ccc(F)cc1F (some centres unmarked) [Compound 4],8.4 nM,12.8 µM
"O=C(NCc1ccc(F)cc1F)c1cn2c(c(O)c1=O)C(=O)N1C(C2)O[C@@H]2C[C@H]1[C@@H]1[C@H]2C1(F)F (stereo partly drawn) [Compound 5, (1aR,2R,12S,12a5)-N-(2,4-difluorobenzyl)-1,1-difluoro-9-hydroxy-8,10-dioxo-1a,2,3a,4,8,10,12,12a-octahydro-1H-2,12-methanocyclopropa[e]pyrido[1′,2′:4,5]pyrazino[2,1-b][1,3]oxazepine-7-carboxamide]",1.6 nM,50.5 µM
"O=C(NCc1ccc(F)cc1F)c1cn2c(c(O)c1=O)C(=O)N1C(C2)O[C@@H]2C[C@H]1[C@H]1C[C@H]12 (stereo partly drawn) [Compound 6, (1aR,2R,3aS,12S,12a5)-N-(2,4-difluorobenzyl)-9-hydroxy-8,10-dioxo-1a,2,3a,4,8,10,12,12a-octahydro-1H-2,12-methanocyclopropa[e]pyrido[1′,2′:4,5]pyrazino[2,1-b][1,3]oxazepine-7-carboxamide]",1.5 nM,14.1 µM
"O=C(NCc1ccc(F)cc1F)c1cn2c(c(O)c1=O)C(=O)N1[C@@H]3C[C@H](O[C@@H]1C2)[C@H]1C[C@H]13 [Compound 7, (1aS,2S,3aR,12R,12aR)-N-(2,4-difluorobenzyl)-9-hydroxy-8,10-dioxo-1a,2,3a,4,8,10,12,12a-octahydro-1H-2,12-methanocyclopropa[e]pyrido[1′,2′:4,5]pyrazino[2,1-b][1,3]oxazepine-7-carboxamide]",2.7 nM,4.83 µM
"O=C(NCc1ccc(F)cc1F)c1cn2c(c(O)c1=O)C(=O)N1[C@H](C2)[C@@H]2C[C@H]1[C@H]1C[C@@H]21 [Compound 8, (1aS,2S,10aS,11R,11aR)-N-(2,4-difluorobenzyl)-5-hydroxy-4,6-dioxo-1a,2,4,6,10,10a,11,11a-octahydro-1H-2,11-methanocyclopropa[4,5]pyrido[1,2-a]pyrido[1,2-d]pyrazine-7-carboxamide]",1.4 nM,8.84 µM
"O=C(NCc1c(F)cc(F)cc1F)c1cn2c(c(O)c1=O)C(=O)N1[C@H](C2)[C@@H]2C[C@H]1[C@H]1C[C@@H]21 [Compound 9, (1aS,2S,10aS,11R,11aR)-5-hydroxy-4,6-dioxo-N-(2,4,6-trifluorobenzyl)-1a,2,4,6,10,10a,11,11a-octahydro-1H-2,11-methanocyclopropa[4,5]pyrido[1,2-a]pyrido[1,2-d]pyrazine-7-carboxamide]",1.4 nM,10.7 µM
"O=C(NCc1c(F)cc(F)cc1F)c1cn2c(c(O)c1=O)C(=O)N1[C@@H]3C[C@H](O[C@@H]1C2)[C@H]1C[C@H]13 [Compound 10, (1aS,2S,3aR,12R,12aR)-9-hydroxy-8,10-dioxo-N-(2,4,6-trifluorobenzyl)-1a,2,3a,4,8,10,12,12a-octahydro-1H-2,12-methanocyclopropa[e]pyrido[1′,2′:4,5]pyrazino[2,1-b][1,3]oxazepine-7-carboxamide]",1.7 nM,7.59 µM
"O=C(NCc1c(F)cc(F)cc1F)c1cn2c(c(O)c1=O)C(=O)N1C(C2)O[C@@H]2C[C@H]1[C@H]1C[C@H]12 (stereo partly drawn) [Compound 11, (1aR,2R,10aR,11S,11a5)-5-hydroxy-4,6-dioxo-N-(2,4,6-trifluorobenzyl)-1a,2,4,6,10,10a,11,11a-octahydro-1H-2,11-methanocyclopropa[4,5]pyrido[1,2-a]pyrido[1,2-d]pyrazine-7-carboxamide]",1.5 nM,11 µM
"O=C(NCc1c(F)cc(F)cc1F)c1cn2c(c(O)c1=O)C(=O)N1[C@@H]3C[C@@H]([C@H]4C[C@H]43)[C@@H]1C2 [Compound 12, (1aR,2R,10aR,11S,11aS)-5-hydroxy-4,6-dioxo-N-(2,4,6-trifluorobenzyl)-1a,2,4,6,10,10a,11,11a-octahydro-1H-2,11-methanocyclopropa[4,5]pyrido[1,2-a]pyrido[1,2-d]pyrazine-7-carboxamide]",2.9 nM,22.8 µM
"O=C(NCc1cc(F)c(F)cc1F)c1cn2c(c(O)c1=O)C(=O)N1C3CC([C@@H]4C[C@H]34)[C@@H]1C2 (stereo partly drawn) [Compound 13, (1aR,2R,10aR,11S,11a5)-5-hydroxy-4,6-dioxo-N-(2,4,5-trifluorobenzyl)-1a,2,4,6,10,10a,11,11a-octahydro-1H-2,11-methanocyclopropa[4,5]pyrido[1,2-a]pyrido[1,2-d]pyrazine-7-carboxamide]",2.3 nM,7.05 µM

# — US10668064B2, “Polycyclic-carbamoylpyridone compounds and their pharmaceutical use” (Gilead Sciences, Inc., priority 2013, dated 2020)
